Measured values as given in patent US5348980A, “Enantiomers derived from (S)-2-amino-2-(3,4-dichlorobenzyl)-1-propanol, their use and method of preparation” (Institute de Recherche Jouveinal, priority 1992, dated 1994).
Counter-ions that a name gives are not always drawn.

What was measured:
Assay type in all cases: in vivo, guinea pigs
[1] = tested on: bronchoconstriction caused by 100 μmol/kg of histamine; test: Histamine-induced bronchoconstriction test (Konzett and Rossler), i.v. administration; conditions: for ED50: Cavia porcellus, iv
Source text: (§1) Furthermore, the antihistaminic properties were studied in guinea pigs by the bronchoconstriction test performed according to the method of H. Konzett and R. Rossler (Arch. Exp. Path. Pharmak.--Naunym Schmiedeberg - 195, 71-74, 1940).
(§2) The products of the invention were studied in this test after administration in solution or in suspension via the intravenous and intraduodenal routes, and also in powder form via the intranasal route.
(§3) Irrespective of the administration route, the preparation of the animals employed in the test consists in first anesthetizing male guinea pigs weighing 350 to 400 g by intraperitoneal (i.p.) injection of a sterile and isotonic solution containing 25% (w/v.) of ethyl carbamate on the basis of 6.0 ml/kg, and in then fitting the animals with a tracheal cannula to permit measurement of the pulmonary pressure, a cannula in the right jugular vein for the intravenous (i.v.) administration of solution, and also a cannula in the left carotid artery for qualitative observation of the blood pressure.
(§4) The animals are then connected to a pump (Harvard, ref. 50-1718) in order to maintain an artificial ventilation at a frequency of 60 insufflations per minute; the intratracheal pressure is recorded by an assembly comprising a transducer, an amplifier and a recorder (Gould, respective refs.: PLOEZ, 13-4615-50 and 8188-G4400-06).
(§5) Fitted in this way, the animals are left undisturbed for 10 minutes before the beginning of the actual experiment, which is carried out in different ways according to the administration route envisaged.
(§6) In base form, the test products are dissolved in an isotonic solution (0.9% NaCl) containing 10% (v/v) of Transcutol (R). Dilutions are performed by adding isotonic solution. In salt, in particular hydrochloride, form, the solutions are prepared in the isotonic solution.
(§7) The treatment of the animals consists of a series of administrations of histamine dihydrochloride solution on the basis of 100 μmol/kg before and after treatment with the solution of test product, which is carried out according to the following time schedule:
(§8) t=-20 minutes - histamine (100 μmol/kg)
(§9) t=-10 minutes - ditto control
(§10) t=0 - injection of the test product
(§11) t=+10 minutes - histamine (100 μmol/kg)
(§12) - Calculation and expression of the results:
(§13) For each administration route and for each time of administration of histamine, the activity of the products is expressed as the percentage change in amplitude of bronchoconstriction, calculated relative to that produced by the "control" administration of histamine which precedes the administration of the test product. The % change is calculated according to the formula: [formula] in which: Bc(tx) represents the amplitude of the bronchoconstriction in mm at time x,
(§14) Bo(tx) the amplitude of the base-line respiration in mm at time x,
(§15) Bc(to) and Bo(to) the corresponding amplitudes in mm on receipt of the "control" administration of histamine which precedes that of the test product.
(§16) The inhibitory activity of the test products on histamine-induced bronchoconstriction is expressed at different times of the studies as their ED50, which is the effective dose of product, expressed in μmol/kg, capable of inhibiting 50% of the histamine-induced bronchoconstriction at the time in question.
(§17) Failing this expression, the results are expressed as a % change at the time in question and for a given concentration of the test product. Under these conditions, a positive percentage corresponds to a potentiating effect on bronchoconstriction and, conversely, a negative percentage to an inhibitory effect.
(§18) Statistical analyses of the results were carried out by the Student t test. A value of p<0.05 is considered significant.
(§19) The compounds of the invention described in Examples 1 and 2 were employed in these tests. In addition, as a comparative product for the eutomer of Example 1, the racemic (R,S) compound corresponding to it, and which is described and prepared in Example 7 of U.S. Pat. No. 4,994,617, was employed. […]

[2] = tested on: bronchoconstriction caused by 100 nmol/kg of histamine; test: Histamine-induced bronchoconstriction test (Konzett and Rossler), intranasal-powder (In.P.) administration; conditions: Cavia porcellus, 5 min, t = 5 min, read-out: ED50 at t = 5 min, inhibition of histamine-induced bronchoconstriction
Source text: Furthermore, the antihistaminic properties were studied in guinea pigs by the bronchoconstriction test performed according to the method of H. Konzett and R. Rossler (Arch. Exp. Path. Pharmak.--Naunym Schmiedeberg - 195, 71-74, 1940). The products of the invention were studied in this test after administration in solution or in suspension via the intravenous and intraduodenal routes, and also in powder form via the intranasal route. Irrespective of the administration route, the preparation of the animals employed in the test consists in first anesthetizing male guinea pigs weighing 350 to 400 g by intraperitoneal (i.p.) injection of a sterile and isotonic solution containing 25% (w/v.) of ethyl carbamate on the basis of 6.0 ml/kg, and in then fitting the animals with a tracheal cannula to permit measurement of the pulmonary pressure, a cannula in the right jugular vein for the intravenous (i.v.) administration of solution, and also a cannula in the left carotid artery for qualitative observation of the blood pressure. The animals are then connected to a pump (Harvard, ref. 50-1718) in order to maintain an artificial ventilation at a frequency of 60 insufflations per minute; the intratracheal pressure is recorded by an assembly comprising a transducer, an amplifier and a recorder (Gould, respective refs.: PLOEZ, 13-4615-50 and 8188-[…]-06). Fitted in this way, the animals are left undisturbed for 10 minutes before the beginning of the actual experiment, which is carried out in different ways according to the administration route envisaged. c) intranasal-powder (In.p) administration The test product is administered via a nasal insufflation of a powder consisting of 20 mg of lactose loaded with the appropriate quantity of the test product. Before this insufflation, the artificial ventilation of the animal is momentarily stopped in order to facilitate the pulmonary penetration of the compound. […] Failing this expression, the results are expressed as a % change at the time in question and for a given concentration of the test product. […]

[3] = tested on: bronchoconstriction caused by histamine; test: Histamine-induced bronchoconstriction test (Konzett and Rossler), i.v. administration; conditions: 3.5 μmol/kg, t = 10', statistically nonsignificant
Source text: as §1, §2, §3, §4, §5, §6, §7, §8, §9, §10, §11, §12, §13, §14, §15, §16, §17, §18, §19

[4] = tested on: bronchoconstriction caused by 100 μmol/kg of histamine; test: Histamine-induced bronchoconstriction test (Konzett and Rossler), intraduodenal (i.d.) administration; conditions: for ED50: Cavia porcellus
Source text: as §1, §2, §3, §4, §5
In base form, the test products are suspended in a solution containing 1% w/v of carboxymethylcellulose (CMC), and, in salt form, they are dissolved in an isotonic solution before being administered via a cannula whose end is placed in the animal's duodenum.
The time schedule for the successive administrations of histamine via the i.v. route and that for the test solution via the i.d. route are identical to that described above in a).
as §12, §13, §14, §15, §16, §17, §18, §19

[5] = 10 min, t = 10', read-out: ED50, inhibition of histamine-induced bronchoconstriction, t = 10'
[6] = 20 min, t = 20', read-out: ED50, inhibition of histamine-induced bronchoconstriction, t = 20'
[7] = 0.5 h, t = 30', read-out: ED50, inhibition of histamine-induced bronchoconstriction, t = 30'
[8] = 40 min, t = 40', read-out: ED50, inhibition of histamine-induced bronchoconstriction, t = 40'
[9] = 50 min, t = 50', read-out: ED50, inhibition of histamine-induced bronchoconstriction, t = 50'
[10] = 1 h, t = 60', read-out: ED50, inhibition of histamine-induced bronchoconstriction, t = 60'
[11] = 3.5 μmol/kg, t = 20', statistically nonsignificant
[12] = 3.5 μmol/kg, t = 30', statistically nonsignificant
[13] = 3.5 μmol/kg, t = 40', statistically nonsignificant
[14] = 3.5 μmol/kg, t = 50', statistically nonsignificant
[15] = 3.5 μmol/kg, t = 60', statistically nonsignificant

SMILES: C=CCN(C)C(C)(CO)Cc1ccc(Cl)c(Cl)c1 (racemic) [Comparative racemate. HCl]
- ED50 [1, 5]: 3.72 µmol/kg
- ED50 [1, 6]: 2.11 µmol/kg
- ED50 [1, 7]: 1.88 µmol/kg
- ED50 [1, 8]: 2.07 µmol/kg
- ED50 [1, 9]: 2.34 µmol/kg
- ED50 [1, 10]: 2.22 µmol/kg

SMILES: C=CCNC(C)(CO)Cc1ccc(Cl)c(Cl)c1 (racemic) [Comparative racemate]
- ED50 [1, 5]: 6.65 µmol/kg
- ED50 [1, 6]: 4.1 µmol/kg
- ED50 [1, 7]: 4.38 µmol/kg
- ED50 [1, 8]: 3.39 µmol/kg
- ED50 [1, 9]: 3.02 µmol/kg
- ED50 [1, 10]: 3.52 µmol/kg

SMILES: CC1(C)Oc2ccc(C#N)cc2[C@H](N2CCCC2=O)[C@H]1O (relative stereo) [Cromakalim (INN), reference compound]
- ED50 [2]: 1.88 µmol/kg

SMILES: C=CCN(C)[C@@](C)(CO)Cc1ccc(Cl)c(Cl)c1 [Comparative distomer, (R)-(-)-N-allyl-2-methylamino-2-(3,4-dichlorobenzyl)-1-propanol, reference compound]
- effect on histamine activity (in words) [1]: perceptibly though not significantly in statistical terms, a potentiating effect on histamine activity
- % potentiating effect on bronchoconstriction, t = 20' [1, 11]: +18.4%
- % potentiating effect on bronchoconstriction, t = 30' [1, 12]: +28.2%
- % potentiating effect on bronchoconstriction, t = 40' [1, 13]: +35.4%
- % potentiating effect on bronchoconstriction, t = 50' [1, 14]: +36.7%
- % potentiating effect on bronchoconstriction, t = 60' [1, 15]: +41.1%
- % potentiating effect on bronchoconstriction, t = 10' [3]: +6.3%
- effect on histamine activity (in words) [4]: perceptibly though not significantly in statistical terms, a potentiating effect on histamine activity
- % potentiating effect on bronchoconstriction, t = 10' ([4]; 3.5 μmol/kg, t = 10', statistically nonsignificant): +5.8%
- % potentiating effect on bronchoconstriction, t = 20' [4, 11]: +14.6%
- % potentiating effect on bronchoconstriction, t = 30' [4, 12]: +32.4%
- % potentiating effect on bronchoconstriction, t = 40' [4, 13]: +44.5%
- % potentiating effect on bronchoconstriction, t = 50' [4, 14]: +35.6%
- % potentiating effect on bronchoconstriction, t = 60' [4, 15]: +30.0%

SMILES: C=CCN[C@](C)(CO)Cc1ccc(Cl)c(Cl)c1 [Example 1, (S)-(-)-N-allyl-2-amino-2-(3,4-dichlorobenzyl)-1-propanol]
- ED50 [1, 5]: 4.89 µmol/kg
- ED50 [1, 6]: 2.88 µmol/kg
- ED50 [1, 7]: 2.54 µmol/kg
- ED50 [1, 8]: 2.58 µmol/kg
- ED50 [1, 9]: 3.17 µmol/kg
- ED50 [1, 10]: 3.55 µmol/kg
- ED50 [4, 6]: 1 µmol/kg
- ED50 [4, 7]: 0.78 µmol/kg
- ED50 [4, 8]: 0.69 µmol/kg
- ED50 [4, 9]: 1.28 µmol/kg
- ED50 [4, 10]: 2.17 µmol/kg

SMILES: O=C1NCC2(CCN(CCc3ccccc3)CC2)O1 [Fenspiride (INN). HCl]
- ED50 [1, 5]: 4.25 µmol/kg
- ED50 [1, 6]: 4.99 µmol/kg
- ED50 [1, 7]: 6.26 µmol/kg
- ED50 [1, 8]: 8.9 µmol/kg
- ED50 [1, 9]: 8.01 µmol/kg
- ED50 [1, 10]: 11 µmol/kg
